This passage reports IC50 results from patent US20200261534A1, “NEW TREATMENTS OF MULTIPLE MYELOMA” (priority 2017, published 2020).

Format in all cases: cell-based
Assay [1] deals with U266-LR7, lymphoblast (myeloma), selected for resistance to Melphalan. As to the method:
U266-LR7, lymphoblast (myeloma), selected for resistance to Melphalan (Alvarez-Fernández et al. Clin Cancer Res. 2013 May 15; 19(10):2677-87).
(§1) All cell lines were cultured in incubator at 37° C. in RPMI-1640 (Sigma R8758) medium with 10% of fetal bovine serum inactivated (FBS) and 2 mM glutamine (Sigma G7513). During the amplification step cells were centrifuged and transferred into the culturing medium. Cells were counted in a Neubauer chamber after labelling with Tripan-Blue.
(§2) Cells were seeded at a density of 10000 cells/well in 100 μl of medium in 96 well plates. After 24 h, the compounds to be tested were added to calculate the dose/response curve at the starting concentration of 100 μM with serial dilutions (1:1). Controls are the untreated cells. Each experiment was performed in triplicate.
(§3) Cells were incubated with the peptidomimetic compound (S09) at the indicated concentrations during 24-72 h in incubator under CO2 atmosphere at 37° C. Then, cell viability was measured by means of MTT (3-(4,5-dimethylthiazol-2-yl)-2,5-diphenyltetrazolium bromide) assay. Stock solution of MTT (475989 Calbiochem) was 5 mg/ml in PBS. 1×.10 μl/well of MTT solution were added and the plate was incubated for 3-4 hr. The medium was discarded and 100 μl of extracting buffer (PBS 1×, 15% SDS, 50% […] N,N-Dimethylformamide, pH 4.7) were added to each well. Plates were incubated for 16 h at room temperature under orbital shaking. Absorbance at 570 nm was finally measured. As negative control (experiment noise) 3 wells were treated with 20 μl/well of a solution of SDS 10% in H2O.
(§4) Data analysis was performed calculating the percentage of cell viability normalized vs. the values of negative control, which was considered equal to 100%. The dose/response curve was fitted through the sigmoidal equation dose-response (variable slope) and the IC50 values were calculated as follow:
(§5) Y=Bottom+(Top−Bottom)/(1+10^{[(LogIC50−X)*HillSlope]},
U266-LR7, lymphoblast (myeloma), selected for resistance to Melphalan (Alvarez-Fernandez et al. Clin Cancer Res. 2013 May 15; 19(10):2677-87).
(§6) All cell lines were cultured in incubator at 37° C. in RPMI-1640 (Sigma R8758) medium with 10% of fetal bovine serum inactivated (FBS) and 2 mM glutamine (Sigma G7513).
(§7) Cells were seeded at a density of 10,000 cells/well in 100 μl of medium in 96 well plates. After 24 h, the compounds to be tested were added to calculate the dose/response curve at the starting concentration of 40 μM with serial dilutions (1:1). Controls are the untreated cells. Each experiment was performed in triplicate.
as §3, with “compounds” for “compound (S09)”

Assay [2] relates to RPMI-8266-LR5, lymphoblast (myeloma), selected for resistance to Melphalan. The method, then:
RPMI-8266-LR5, lymphoblast (myeloma), selected for resistance to Melphalan (Bellamy W T et al., Cancer Res. 1991 Feb. 1; 51(3):995-1002).
as §1, §2, §3, §4, §5, §6, §7
as §3, with “compounds” for “compound (S09)”

Assay [3] deals with MBA-MD231, epithelial (breast cancer). In words: MTT viability assay, MBA-MD231. As to the method:
(§8) MBA-MD231, epithelial (breast cancer), ECACC: 86012803 […] During the amplification step and the assays adherent cells were rinsed with DPBS (Dulbecco's Phosphate Buffered Saline, Sigma D1283) three times and afterward treated for 5 minutes with trypsin ([…]) (Gibco-BRL, 15400054) in solution of DPBS at 37° C., and, once detached, transferred in the culturing medium. No-adherent cells were centrifuged and transferred in the culturing medium. Cells were counted in a Neubauer chamber after labelling with Tripan-Blue. […] Cells were seeded at a density of 10,000 cells/well in 100 μl of medium in 96 well plates. […] Controls are the untreated cells. Each experiment was performed in triplicate. Cells were incubated with the compounds at the indicated concentrations during 24-72 h in incubator under CO2 atmosphere at 37° C. […] Stock solution of MTT (475989 Calbiochem) was 5 mg/ml in PBS. 1×.10 μl/well of MTT solution were added and the plate was incubated for 3-4 hr. […] Plates were incubated for 16 h at room temperature under orbital shaking. Absorbance at 570 nm was finally measured. […] The dose/response curve was fitted through the sigmoidal equation dose-response (variable slope) and the IC50 values were calculated as follow: […]

In assay [4] the test system is NCI-H128, epithelial (small cell lung cancer). In words: MTT viability assay, NCI-H128. As to the method:
as §8, with “NCI-[…],” for “MBA-MD231,”, “(small cell lung” for “(breast”, “ATCC: HTB-120TM” for “ECACC: 86012803”
On the technique in general: Tetrazolium dyes change colour on reduction, which living cells bring about.

Assay [5] deals with MM144, lymphoblast (myeloma). The assay can be described thus: MTT viability assay, MM144. The conditions noted are these: 24-72 h, Table 7, read-out: IC50 values in μM for S09. As to the method: MM144, lymphoblast (myeloma), University of Salamanca
as §1, §2
Cells were incubated with the peptidomimetic compound (S09) at the indicated concentrations during 24-72 h in incubator under CO2 atmosphere at 37° C. Then, cell viability was measured by means of MTT (3-(4,5-dimethylthiazol-2-yl)-2,5-diphenyltetrazolium bromide) assay. Stock solution of MTT (475989 Calbiochem) was 5 mg/ml in PBS. […] Absorbance at 570 nm was finally measured. […]
Data analysis was performed calculating the percentage of cell viability normalized vs. the values of negative control, which was considered equal to 100%. The dose/response curve was fitted through the sigmoidal equation dose-response (variable slope) and the IC50 values were calculated as follow: […]

The mark [6] stands for this setting: U266LR7, 24 hr, Table 13, read-out: IC50 after 24 hr values.
[7] abbreviates: U266LR7, 72 hr, Table 14, read-out: IC50 after 72 hr values.
Where [8] appears, read: RPMI-LR5, 24 hr, Table 13, read-out: IC50 after 24 hr values.
The mark [9] stands for this setting: RPMI-LR5, 72 hr, Table 14, read-out: IC50 after 72 hr values.

Like-named read-outs stand apart in the source and are kept apart here. Starred links: 1 amine or outer side, 2 acyl side, 3 side chain; linkers in the order of their positions; H or OH if unused. Positions of bridges follow the written chain, without caps; N, C: chain ends. Non-standard residues stand in square brackets, D forms with d. Residues, ends and D or L forms follow the SMILES beside them. ξ: configuration not given here. Biphenyl(4,4'-CH2)2 = c1cc(-c2ccc(C[*:2])cc2)ccc1C[*:1]; ξαMeNle(6-ylidene) = CC(CCCC=[*:3])(N[*:1])C(=O)[*:2]; X1 = CC(CCCCCCC=[*:3])(N[*:1])C(=O)[*:2]; Octanediyl(1,8) = C(CCCC[*:2])CCC[*:1]; ξC = NC(CS)C(=O)O

The IC50 is the concentration at which inhibition is half-maximal.

`CC[C@H](C)[C@H](NC(=O)[C@H](Cc1ccc(O)cc1)NC(=O)[C@H](C)NC(=O)C1(C)CCCC=CCCCCCCC(C)(NC(=O)[C@H](CCCCN)NC(=O)[C@@H]2CCCN2C(=O)[C@H](C)N)C(=O)N[C@@H](C(C)C)C(=O)N[C@@H]([C@@H](C)CC)C(=O)N[C@@H](Cc2ccccc2)C(=O)N[C@@H](CCCCN)C(=O)N[C@@H](CCCCN)C(=O)N[C@@H](C)C(=O)N1)C(=O)N[C@@H](CC(C)C)C(=O)N[C@@H](CO)C(=O)O` (stereo partly drawn) [S14, APKXVIFKKAXAYILS—OH] (H-APK[X1]VIFKKA[ξαMeNle(6-ylidene)]AYILS-OH; staple 4-11; N-terminus assumed): the IC50 in assay [1] (setting [6]), in assay [1] (setting [7]), in assay [2] (setting [8]) and in assay [2] (setting [9]) was 10 µM each time.
In the case of `CC[C@H](C)[C@H](NC(=O)[C@H](Cc1ccc(O)cc1)NC(=O)[C@H](C)NC(=O)[C@@H]1CSCc2ccc(cc2)-c2ccc(cc2)CSC[C@H](NC(=O)[C@H](CCCCN)NC(=O)[C@@H]2CCCN2C(=O)[C@H](C)N)C(=O)N[C@@H](C(C)C)C(=O)N[C@@H]([C@@H](C)CC)C(=O)N[C@@H](CC(C)C)C(=O)N[C@@H](CCCCN)C(=O)N[C@@H](CCCCN)C(=O)N[C@@H](C)C(=O)N1)C(=O)N[C@@H](CC(C)C)C(=O)N[C@@H](CO)C(=O)O` [IDP-P1708161] (H-APKCVILKKACAYILS-OH; linker 4-11 via Biphenyl(4,4'-CH2)2; N-terminus and C-terminus assumed), the half-inhibitory concentration (IC50) in assay [3] amounted to 29 ± 2 µM; in assay [4], 14 ± 1 µM; in assay [2] (setting [8]), 35 µM; in assay [2] (setting [9]), 35 µM.
For `CC[C@H](C)[C@H](NC(=O)[C@H](Cc1ccc(O)cc1)NC(=O)[C@H](C)NC(=O)C1CSCCCCCCCCSCC(NC(=O)[C@H](CCCCN)NC(=O)[C@@H]2CCCN2C(=O)[C@H](C)N)C(=O)N[C@@H](C(C)C)C(=O)N[C@@H]([C@@H](C)CC)C(=O)N[C@@H](CC(C)C)C(=O)N[C@@H](CCCCN)C(=O)N[C@@H](CCCCN)C(=O)N[C@@H](C)C(=O)N1)C(=O)N[C@@H](CC(C)C)C(=O)N[C@@H](CO)C(=O)O` (stereo partly drawn) [IDP-P1708160] (H-APK[ξC]VILKKA[ξC]AYILS-OH; linker 4-11 via Octanediyl(1,8); N-terminus and C-terminus assumed), the IC50 in assay [1] (setting [6]) is 2.5 µM; in assay [1] (setting [7]), 2.5 µM; in assay [3] it was 42 ± 2 µM; in assay [4] it was 16 ± 1 µM; in assay [2] (setting [9]) it was 7.5 µM.
As to `CC[C@H](C)[C@H](NC(=O)[C@H](Cc1ccc(O)cc1)NC(=O)[C@H](C)NC(=O)C1(C)CCCC=CCCCCCCC(C)(NC(=O)[C@H](CCCCN)NC(=O)[C@@H]2CCCN2C(=O)[C@H](C)N)C(=O)N[C@@H](C(C)C)C(=O)N[C@@H]([C@@H](C)CC)C(=O)N[C@@H](CC(C)C)C(=O)N[C@@H](CCCCN)C(=O)N[C@@H](CCCCN)C(=O)N[C@@H](C)C(=O)N1)C(=O)N[C@@H](CC(C)C)C(=O)N[C@@H](CO)C(=O)O` (stereo partly drawn) [S09, APKXVILKKAXAYILS—OH] (H-APK[X1]VILKKA[ξαMeNle(6-ylidene)]AYILS-OH; staple 4-11; N-terminus assumed), the IC50 in assay [1] (U266LR7 (resistant to Melphalan), MTT, 24-72 h, Table 7, read-out: IC50 values in μM for S09) is 9.7 µM; in assay [3] (MBA-MD231, MTT, 24-72 h, Table 12, read-out: IC50 values) it was 4.9 ± 0.3 µM; in assay [5], 6.8 µM; in assay [4] (NCI-H128, MTT, 24-72 h, Table 12, read-out: IC50 values), 3 ± 1 µM; in assay [2] (RPMI-LR5 (resistant to Melphalan), MTT, 24-72 h, Table 7, read-out: IC50 values in μM for S09), 11.4 µM.
